In US20220125777A1, “COMBINATION OF A CDK INHIBITOR AND A PIM INHIBITOR” (Pfizer Inc., priority 2019, published 2022):

Tested on: HR+/HER2− advanced or metastatic breast cancer
Assay: Study 2: progression-free survival by PIM2 mRNA expression, palbociclib plus fulvestrant vs placebo plus fulvestrant
Format: in vivo, human
Conditions: Study 2, control arm, fulvestrant alone (placebo plus fulvestrant 500 mg IM); FIG. 2A
Experimental: Study 2 was conducted in HR+/HER2− advanced or metastatic breast cancer (MBC) patients who had progressed on prior endocrine therapy. Pre- and peri-menopausal subjects were given an LHRH agonist. Subjects were treated with palbociclib (125 mg QD, 3/1 schedule) plus fulvestrant (500 mg IM on Days 1 and 15 of Cycle 1, and then Day 1 of each subsequent 28-day cycle) or placebo (3/1 schedule QD) plus fulvestrant on the same schedule. In both studies, the primary outcome was PFS as assessed by the investigator.
Tumor samples were analyzed to identify potential predictive biomarkers for palbociclib plus letrozole treatment. Using the EdgeSeq Oncology BM Panel, mRNA expression was assessed for 2534 cancer-related genes. […] Targeted capture sequencing was used to quantitate RNA expression levels of gene targets. […]
The primary outcome was PFS as assessed by the investigator.
Tumor samples were analyzed by EdgeSeq Oncology BM Panel (HTG Molecular Diagnostics; https://www.htgmolecular.com/assays/obp) for mRNA expression assessment of 2534 cancer-related genes. […]
The EdgeSeq system used was validated and used targeted capture sequencing to quantitate RNA expression levels of gene targets in formalin-fixed paraffin-embedded tumor tissues. […]

`C[C@]12CC[C@@H]3c4ccc(O)cc4C[C@@H](CCCCCCCCC[S+]([O-])CCCC(F)(F)C(F)(F)F)[C@H]3[C@@H]1CC[C@@H]2O` (stereo partly shown) [fulvestrant] was tested, and the “PFS of subjects having low PIM2 expression versus higher PIM2 expression” value was “shorter PFS”.
